Results taken from patent EP0350260A2, “New oxamic acid compounds and pharmaceutical composition for use in improvement of damaged cerebral functions of brain” (MEIJI SEIKA KAISHA LTD., priority 1988, dated 1990).

The compounds below were run on mice having cerebral anoxia experimentally induced under the load of hypobaric hypoxia (assay: Survival time of mice with cerebral anoxia induced under hypobaric hypoxia (Test 1)). Settings: 100 mg/kg intraperitoneally, 30 minutes before evacuation to 190 mmHg; 6 ddy mice per group; untreated control group = 100.
Format: in vivo
Description: ddy Mice (6 weeks old, body weight: 25-30 g, each group comprising 6 ddy mice) were administered intraperitoneally with the compounds of the present invention, respectively. Each of the tested compounds of this invention had been beforehand dissolved in redistilled water and the aqueous solution was administered in an amount of 0.1 ml per 10 g body weight. Thirty minutes after the administration, the mice were individually placed in hermetic transparent containers. The containers were rapidly evacuated to 190 mmHg by means of a vacuum pump. Time was measured from the initiation of the evacuation to the death of each mouse due to respiratory failure. That time was recorded as the survival time (seconds) of mice.
The ratios of the survival time of the groups of the treated mice which received the administration of the tested compounds of this invention divided by the survival time of a control group (untreated) which received no administration of the drug were calculated.

First: CC(C)N(C(=O)C(=O)O)C(C)C [N,N-di-isopropyl-oxamic acid, N,N-di-isopropyloxamic acid]
Second: CCCN(CC)C(=O)C(=O)O [N-ethyl-N-n-propyl-oxamic acid, N-ethyl-N-n-propyloxamic acid]
The “Survival time ratio (control group: 100)” value of the first is lower: 155 for the first, 166 for the second.

Compared with `CCCN(CCC)C(=O)C(=O)O` [N,N-di-n-propyl-oxamic acid, N,N-di-n-propyloxamic acid], `CCCCN(CC)C(=O)C(=O)O` [N-ethyl-N-butyl-oxamic acid, N-ethyl-N-n-butyloxamic acid] is lower in “Survival time ratio (control group: 100)” value: 181 for the first, 116 for the second.

With `C=CCN(CC=C)C(=O)C(=O)O` [N,N-di-allyloxamic acid] the “Survival time ratio (control group: 100)” value was 187.

Each compound was assayed on ddy mice (assay: not given). Settings: mouse, in vivo.
Description: The toxicity of the compounds of the general formula (I) usable in this invention was evaluated by using N,N-di-isopropyloxamic acid as one example.

`CC(C)N(C(=O)C(=O)O)C(C)C` [N,N-di-isopropyl-oxamic acid, N,N-di-isopropyloxamic acid] was tested, and the “toxicity (survival of mice)” value was “all the mice tolerated it and remained alive”.
